Active and inactive are the calls of the source.

Test [1] concerns the target Calcium/calmodulin-dependent protein kinase type II subunit gamma (Homo sapiens, UniProt Q13555).
For test [2], the target named is Cyclin-dependent kinase 2 (Homo sapiens, UniProt P24941).
The target of test [3] is Casein kinase I isoform gamma-1 (Homo sapiens, UniProt Q9HCP0).
In test [4] the target is T1, Cytochrome c1, heme protein, mitochondrial (Homo sapiens, UniProt P08574).
T1 sequence (P08574 whole entry): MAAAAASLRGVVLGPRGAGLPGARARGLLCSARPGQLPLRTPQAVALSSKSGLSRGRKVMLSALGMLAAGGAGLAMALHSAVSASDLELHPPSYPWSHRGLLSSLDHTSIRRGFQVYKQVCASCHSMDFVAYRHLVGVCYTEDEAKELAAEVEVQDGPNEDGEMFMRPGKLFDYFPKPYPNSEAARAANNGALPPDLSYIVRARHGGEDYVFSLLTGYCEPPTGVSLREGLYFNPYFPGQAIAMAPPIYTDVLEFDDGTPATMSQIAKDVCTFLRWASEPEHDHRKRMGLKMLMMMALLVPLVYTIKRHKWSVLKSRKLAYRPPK

Test [5] deals with T2, ATP-dependent RNA helicase DDX42 (Homo sapiens, UniProt Q86XP3).
T2 sequence (Q86XP3 whole entry): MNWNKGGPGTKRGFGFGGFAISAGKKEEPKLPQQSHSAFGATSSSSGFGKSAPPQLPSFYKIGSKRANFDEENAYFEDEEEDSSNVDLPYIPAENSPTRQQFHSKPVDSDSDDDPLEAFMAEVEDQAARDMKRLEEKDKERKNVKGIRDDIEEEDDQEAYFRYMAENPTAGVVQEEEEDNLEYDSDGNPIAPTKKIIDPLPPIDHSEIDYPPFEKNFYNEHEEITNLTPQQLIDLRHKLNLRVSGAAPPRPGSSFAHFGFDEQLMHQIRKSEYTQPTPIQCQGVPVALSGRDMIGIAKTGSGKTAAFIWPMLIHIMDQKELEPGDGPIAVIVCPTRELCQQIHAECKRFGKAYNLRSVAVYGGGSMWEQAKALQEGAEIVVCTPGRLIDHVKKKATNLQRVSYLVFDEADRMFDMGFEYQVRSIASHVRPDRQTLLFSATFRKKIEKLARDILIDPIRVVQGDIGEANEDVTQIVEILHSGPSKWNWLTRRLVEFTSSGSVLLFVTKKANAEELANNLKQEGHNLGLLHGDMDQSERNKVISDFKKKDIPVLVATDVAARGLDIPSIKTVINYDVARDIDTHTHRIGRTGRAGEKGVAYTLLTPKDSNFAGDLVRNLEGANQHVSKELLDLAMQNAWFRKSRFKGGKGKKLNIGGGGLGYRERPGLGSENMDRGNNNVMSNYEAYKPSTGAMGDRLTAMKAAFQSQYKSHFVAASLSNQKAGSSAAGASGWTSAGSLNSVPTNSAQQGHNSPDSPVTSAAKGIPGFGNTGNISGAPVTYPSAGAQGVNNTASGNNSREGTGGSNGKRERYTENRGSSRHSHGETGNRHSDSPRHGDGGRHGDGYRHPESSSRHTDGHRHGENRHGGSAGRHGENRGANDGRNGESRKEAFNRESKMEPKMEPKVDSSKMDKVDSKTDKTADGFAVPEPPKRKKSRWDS

The target of test [6] is T3, Delta(24)-sterol reductase (Homo sapiens, UniProt Q15392).
T3 sequence (Q15392 whole entry): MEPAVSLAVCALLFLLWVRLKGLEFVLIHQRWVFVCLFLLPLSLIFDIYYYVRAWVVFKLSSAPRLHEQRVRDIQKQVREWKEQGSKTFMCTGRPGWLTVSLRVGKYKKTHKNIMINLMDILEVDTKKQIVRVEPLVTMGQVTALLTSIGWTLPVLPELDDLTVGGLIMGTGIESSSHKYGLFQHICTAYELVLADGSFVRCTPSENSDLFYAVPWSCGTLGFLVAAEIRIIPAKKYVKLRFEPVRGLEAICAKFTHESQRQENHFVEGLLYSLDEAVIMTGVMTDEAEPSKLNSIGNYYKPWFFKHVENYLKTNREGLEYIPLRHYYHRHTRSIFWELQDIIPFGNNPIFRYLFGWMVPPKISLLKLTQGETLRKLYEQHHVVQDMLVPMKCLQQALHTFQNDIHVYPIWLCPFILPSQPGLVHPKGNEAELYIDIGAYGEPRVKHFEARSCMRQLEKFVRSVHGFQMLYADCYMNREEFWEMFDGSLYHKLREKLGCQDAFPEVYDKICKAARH

The target in test [7] is Glycogen synthase kinase-3 alpha (Homo sapiens, UniProt P49840).
The target of test [8] is Putative heat shock protein HSP 90-beta 2 (Homo sapiens, UniProt Q58FF8).
For test [9], the target named is Mitogen-activated protein kinase 9 (Homo sapiens, UniProt P45984).
For test [10], the target named is S-adenosylmethionine synthase isoform type-2 (Homo sapiens, UniProt P31153).
Test [11] concerns the target T4, Ribosyldihydronicotinamide dehydrogenase [quinone] (Homo sapiens, UniProt P16083).
T4 sequence (P16083 whole entry): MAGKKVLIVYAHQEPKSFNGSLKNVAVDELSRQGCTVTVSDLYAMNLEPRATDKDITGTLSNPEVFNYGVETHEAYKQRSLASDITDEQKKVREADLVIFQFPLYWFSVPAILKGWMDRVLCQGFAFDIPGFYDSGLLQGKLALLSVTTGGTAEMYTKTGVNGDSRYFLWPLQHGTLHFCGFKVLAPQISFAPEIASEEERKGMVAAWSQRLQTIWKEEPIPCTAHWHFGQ

In test [12] the target is Protein kinase C delta type (Homo sapiens, UniProt Q05655).
In another test the target is T5, Aurora kinase A (Homo sapiens, UniProt O14965).
T5 sequence (O14965 whole entry): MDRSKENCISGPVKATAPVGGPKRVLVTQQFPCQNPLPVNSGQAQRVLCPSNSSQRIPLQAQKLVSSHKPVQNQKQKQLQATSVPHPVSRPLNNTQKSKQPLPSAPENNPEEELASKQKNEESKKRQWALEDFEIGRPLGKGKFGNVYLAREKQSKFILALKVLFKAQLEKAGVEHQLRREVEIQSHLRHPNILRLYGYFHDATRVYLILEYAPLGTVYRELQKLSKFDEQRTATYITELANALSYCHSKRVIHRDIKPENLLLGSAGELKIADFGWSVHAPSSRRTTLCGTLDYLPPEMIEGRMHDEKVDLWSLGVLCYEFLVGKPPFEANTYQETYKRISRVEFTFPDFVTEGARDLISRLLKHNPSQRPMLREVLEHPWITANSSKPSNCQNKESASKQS
Further: in the data inactive means no Kd found up to 30 µM.

Sequence of Glycogen synthase kinase-3 alpha (P49840 whole entry): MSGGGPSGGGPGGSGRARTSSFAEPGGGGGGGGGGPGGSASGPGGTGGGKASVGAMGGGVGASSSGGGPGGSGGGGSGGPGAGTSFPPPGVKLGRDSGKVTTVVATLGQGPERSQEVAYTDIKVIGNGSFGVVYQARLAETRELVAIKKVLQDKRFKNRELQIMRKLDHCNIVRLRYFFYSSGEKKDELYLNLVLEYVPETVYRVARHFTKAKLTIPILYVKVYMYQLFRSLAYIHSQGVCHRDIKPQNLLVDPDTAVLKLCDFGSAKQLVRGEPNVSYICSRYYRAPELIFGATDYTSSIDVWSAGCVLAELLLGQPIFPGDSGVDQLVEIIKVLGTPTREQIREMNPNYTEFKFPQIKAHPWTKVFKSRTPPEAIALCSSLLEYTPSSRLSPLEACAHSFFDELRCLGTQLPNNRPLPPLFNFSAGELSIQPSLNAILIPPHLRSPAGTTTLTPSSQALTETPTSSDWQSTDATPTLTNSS
Sequence of Putative heat shock protein HSP 90-beta 2 (Q58FF8 whole entry): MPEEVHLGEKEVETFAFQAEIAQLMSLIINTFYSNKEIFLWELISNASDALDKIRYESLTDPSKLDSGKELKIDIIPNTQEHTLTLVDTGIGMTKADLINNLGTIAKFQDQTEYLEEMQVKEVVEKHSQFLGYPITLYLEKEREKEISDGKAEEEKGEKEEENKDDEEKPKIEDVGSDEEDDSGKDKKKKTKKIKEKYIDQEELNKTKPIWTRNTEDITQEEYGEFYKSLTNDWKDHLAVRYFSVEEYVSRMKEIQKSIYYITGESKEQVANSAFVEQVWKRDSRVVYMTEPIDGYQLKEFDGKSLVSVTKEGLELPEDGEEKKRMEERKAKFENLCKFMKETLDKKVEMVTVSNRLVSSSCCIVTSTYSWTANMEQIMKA
Sequence of Calcium/calmodulin-dependent protein kinase type II subunit gamma (Q13555 whole entry): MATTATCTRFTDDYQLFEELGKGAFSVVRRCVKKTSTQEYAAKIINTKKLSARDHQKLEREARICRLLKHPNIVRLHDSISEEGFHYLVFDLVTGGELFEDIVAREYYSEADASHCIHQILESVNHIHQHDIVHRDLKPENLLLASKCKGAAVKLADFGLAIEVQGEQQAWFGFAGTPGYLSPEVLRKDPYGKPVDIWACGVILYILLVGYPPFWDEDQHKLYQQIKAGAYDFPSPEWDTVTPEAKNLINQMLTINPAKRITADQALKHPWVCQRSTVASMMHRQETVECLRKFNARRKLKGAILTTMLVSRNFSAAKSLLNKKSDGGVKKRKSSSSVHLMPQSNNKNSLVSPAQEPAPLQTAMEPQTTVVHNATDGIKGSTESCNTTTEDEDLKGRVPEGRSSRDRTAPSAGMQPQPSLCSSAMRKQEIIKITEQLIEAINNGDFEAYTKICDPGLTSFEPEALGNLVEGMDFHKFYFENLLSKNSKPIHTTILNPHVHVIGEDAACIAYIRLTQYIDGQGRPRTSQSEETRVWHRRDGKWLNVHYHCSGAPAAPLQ
Sequence of S-adenosylmethionine synthase isoform type-2 (P31153 whole entry, canonical isoform): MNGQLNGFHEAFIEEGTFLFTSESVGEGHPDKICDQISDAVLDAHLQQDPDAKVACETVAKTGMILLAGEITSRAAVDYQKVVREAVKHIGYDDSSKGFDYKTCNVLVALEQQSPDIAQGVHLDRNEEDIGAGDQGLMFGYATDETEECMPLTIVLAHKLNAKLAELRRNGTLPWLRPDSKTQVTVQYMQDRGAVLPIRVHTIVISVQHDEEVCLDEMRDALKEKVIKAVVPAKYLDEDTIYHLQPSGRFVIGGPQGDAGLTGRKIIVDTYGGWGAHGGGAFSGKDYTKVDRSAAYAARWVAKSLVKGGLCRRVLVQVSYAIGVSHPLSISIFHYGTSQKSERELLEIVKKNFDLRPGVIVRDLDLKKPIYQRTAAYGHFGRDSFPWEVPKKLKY
Sequence of Casein kinase I isoform gamma-1 (Q9HCP0 whole entry, canonical isoform): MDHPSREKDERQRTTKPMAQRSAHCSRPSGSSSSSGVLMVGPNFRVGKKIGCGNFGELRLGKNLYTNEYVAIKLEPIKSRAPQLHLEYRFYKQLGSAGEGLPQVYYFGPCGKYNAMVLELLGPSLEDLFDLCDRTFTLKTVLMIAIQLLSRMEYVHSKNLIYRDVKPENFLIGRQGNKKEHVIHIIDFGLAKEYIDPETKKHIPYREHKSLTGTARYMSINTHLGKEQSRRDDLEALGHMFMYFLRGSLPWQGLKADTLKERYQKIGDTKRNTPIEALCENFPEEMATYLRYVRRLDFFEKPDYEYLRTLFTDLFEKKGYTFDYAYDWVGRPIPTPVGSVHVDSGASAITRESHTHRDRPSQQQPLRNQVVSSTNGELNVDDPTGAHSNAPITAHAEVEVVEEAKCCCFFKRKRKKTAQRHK
Sequence of Mitogen-activated protein kinase 9 (P45984 whole entry, canonical isoform): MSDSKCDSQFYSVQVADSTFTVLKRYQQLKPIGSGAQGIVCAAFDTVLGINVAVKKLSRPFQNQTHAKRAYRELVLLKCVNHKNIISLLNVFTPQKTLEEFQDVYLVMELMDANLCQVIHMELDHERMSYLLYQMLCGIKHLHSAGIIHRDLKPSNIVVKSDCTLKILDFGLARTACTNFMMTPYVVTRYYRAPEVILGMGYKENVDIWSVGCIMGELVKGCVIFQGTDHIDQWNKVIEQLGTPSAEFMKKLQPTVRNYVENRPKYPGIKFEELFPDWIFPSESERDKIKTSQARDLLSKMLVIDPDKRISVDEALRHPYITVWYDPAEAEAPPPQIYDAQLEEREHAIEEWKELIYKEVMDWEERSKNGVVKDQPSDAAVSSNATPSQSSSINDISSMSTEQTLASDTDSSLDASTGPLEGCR
Sequence of Protein kinase C delta type (Q05655 whole entry): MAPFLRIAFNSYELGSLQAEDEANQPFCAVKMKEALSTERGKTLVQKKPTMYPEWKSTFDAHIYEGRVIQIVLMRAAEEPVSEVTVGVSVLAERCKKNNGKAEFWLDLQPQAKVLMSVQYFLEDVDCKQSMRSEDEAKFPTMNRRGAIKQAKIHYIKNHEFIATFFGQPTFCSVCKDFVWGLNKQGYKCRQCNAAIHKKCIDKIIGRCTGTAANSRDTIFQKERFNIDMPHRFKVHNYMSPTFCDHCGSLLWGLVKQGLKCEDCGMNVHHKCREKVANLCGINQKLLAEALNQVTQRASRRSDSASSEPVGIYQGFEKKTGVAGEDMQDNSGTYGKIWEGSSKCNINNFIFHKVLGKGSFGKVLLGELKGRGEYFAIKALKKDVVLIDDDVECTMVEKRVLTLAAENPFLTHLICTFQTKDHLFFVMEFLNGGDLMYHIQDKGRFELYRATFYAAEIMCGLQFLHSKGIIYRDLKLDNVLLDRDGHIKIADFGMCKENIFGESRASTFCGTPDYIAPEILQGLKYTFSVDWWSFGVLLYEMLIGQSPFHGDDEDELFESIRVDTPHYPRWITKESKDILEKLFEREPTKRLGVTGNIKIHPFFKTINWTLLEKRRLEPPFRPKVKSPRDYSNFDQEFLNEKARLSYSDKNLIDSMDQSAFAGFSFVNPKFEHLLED

Turning to `CC(=O)c1cnc2ccc(-c3cc(Cl)c(O)c(Cl)c3)nc2c1N[C@H]1CC[C@H](CN(C)C)CC1`, the Kd was > 30 µM (inactive) in [1]; 0.091 µM (active) in [2]; 0.665 µM in [3]; > 30 µM (inactive) in test [4]; > 30 µM (inactive) in test [5]; > 30 µM (inactive) in test [6]. The Kd was 0.087 µM (active) in test [7]; > 30 µM (inactive) in test [8]; 0.364 µM (active) in [9]; > 30 µM (inactive) in test [10]; > 30 µM (inactive) in test [11].
Consider `CCn1cc(-c2ccnc3[nH]c(-c4cccc(CN(C)C)c4)cc23)c(-c2ccc(NC(=O)N(C)C)cc2)n1` [GSK-1070916], for which the Kd in test [1], in test [2], in test [3], in test [4], in test [5] and in test [6] was > 30 µM (inactive) in each case. Further, the Kd in test [7], in test [8], in test [11] and in test [12] was > 30 µM (inactive) in each case.
For `CNC(=O)c1cccc2cc(Oc3ccnc4cc(OCC5(N)CC5)c(OC)cc34)ccc12` [LUCITANIB], the Kd (at Aurora kinase A; in test [1]; in test [3]; in test [4]; in [5]; in [6]) was > 30 µM (inactive) each time. Besides, the Kd in [7], in [8], in test [9], in test [10], in test [11] and in test [12] was > 30 µM (inactive) in each case.
As to `Cc1nc(Nc2n[nH]c3c2CN(C(=O)N[C@H](CN(C)C)c2ccccc2)C3(C)C)c2sccc2n1` [PF-03758309], the Kd at Aurora kinase A was 0.981 µM (active); in test [1], 0.275 µM (active); in [3], > 30 µM (inactive); in test [4], > 30 µM (inactive); in test [5] it was > 30 µM (inactive); in test [6], > 30 µM (inactive). Moreover, the Kd in [7] is 2.09 µM (active); in test [8], > 30 µM (inactive); in [9], > 30 µM (inactive); in test [10], > 30 µM (inactive); in [11] it was > 30 µM (inactive); in test [12], 0.974 µM (active).
Take `C[C@@H](N)c1ccc(C(=O)Nc2ccnc3[nH]ccc23)cc1` [Y-39983]: the Kd (on Aurora kinase A; in test [1]; in test [3]; in test [4]; in test [5]; in test [6]) was > 30 µM (inactive) throughout. In addition, the Kd in test [7] is 1.1 µM (active); in [8], > 30 µM (inactive); in [9] it was > 30 µM (inactive); in test [10], > 30 µM (inactive); in [11], > 30 µM (inactive); in test [12], 0.034 µM (active).
As to `CN1C/C=C/CCOc2cccc(c2)-c2ccnc(n2)Nc2cccc(c2)C1` [ZOTIRACICLIB], the Kd (at Aurora kinase A; in [1]; in test [3]; in test [4]; in test [5]; in test [6]) was > 30 µM (inactive) each time. Further, the Kd is 0.579 µM (active) in test [7]; > 30 µM (inactive) in test [8]; 2.31 µM (active) in test [9]; > 30 µM (inactive) in [10]; > 30 µM (inactive) in test [11]; 0.996 µM (active) in test [12].

The term Kd denotes a measure of binding affinity in units of concentration.
